Test results published in patent US20090304687A1, “METHODS OF USING CD40 BINDING AGENTS” (Seattle Genetics , Inc., priority 2005, published 2009).

Tested on: Ramos Burkitt's lymphoma cells
Test: Combination therapy with CHOP or prednisone, subcutaneous Ramos Burkitt's lymphoma in SCID mice
Type: in vivo, C.B.-17 SCID mice
Description: To model localized lymphoma, 5×10^6 Ramos Burkitt's lymphoma cells were implanted subcutaneously into the right flank of C.B.-17 SCID mice (Harlan, Indianapolis, Ind.). Therapy was initiated when the mean tumor size in each group of five animals was 100 mm^3. CHOP was used for a single course, alone or in combination with humanized CD40 antibody (hu sgn-0; SGN-40), using the following dose schedule: cyclophosphamide at 30 mg/kg, i.v. qld x 1; doxorubicin at 2.475 mg/kg, i.v. qld x 1; vincristine at 0.375 mg/kg, i.v. qld x 1; and prednisone at 0.15 mg/kg, p.o. q1d x 5. The CD40 antibody was administered i.p. at 4 mg/kg q4d x 4 when used alone or in combination with prednisone or CHOP. Tumor size was determined using the formula (L×W^2)/2.
To compare the effect of SGN-40 treatment alone or in combination with CHOP or prednisone, SCID mice were subcutaneously implanted with Ramos cells, and dosed with SGN-40 alone or in combination with CHOP as described above. In addition, prednisone steroid was administered alone (0.15 mg/kg, qld x 5 po) or in combination with SGN-40 (4.0 mg/kg, q4d x 4 ip).

SMILES: C[C@]12C=CC(=O)C=C1CC[C@@H]1[C@@H]2C(=O)C[C@@]2(C)[C@H]1CC[C@]2(O)C(=O)CO [prednisone]
- effect on tumor growth, administered alone (CHOP single course, prednisone 0.15 mg/kg p.o. q1d x 5): little effect
- efficacy in combination with humanized CD40 antibody (SGN-40) (SGN-40 4 mg/kg i.p. q4d x 4 plus CHOP or prednisone): greater efficacy
